pIC50: −log10 of the molar value.
Key:
[1] = molecular target: T1, ITK (Homo sapiens, UniProt Q08881); assay: ADP-Glo ITK Kinase enzyme system inhibitory activity; assay type: biochemical; conditions: ADP-Glo kit (Promega), ATP 25 uM, duplicate; read-out: inhibitory activity against ITK (ITK IC50)
T1 construct: purchased Promega Corporation
T1 sequence (Q08881 1-620): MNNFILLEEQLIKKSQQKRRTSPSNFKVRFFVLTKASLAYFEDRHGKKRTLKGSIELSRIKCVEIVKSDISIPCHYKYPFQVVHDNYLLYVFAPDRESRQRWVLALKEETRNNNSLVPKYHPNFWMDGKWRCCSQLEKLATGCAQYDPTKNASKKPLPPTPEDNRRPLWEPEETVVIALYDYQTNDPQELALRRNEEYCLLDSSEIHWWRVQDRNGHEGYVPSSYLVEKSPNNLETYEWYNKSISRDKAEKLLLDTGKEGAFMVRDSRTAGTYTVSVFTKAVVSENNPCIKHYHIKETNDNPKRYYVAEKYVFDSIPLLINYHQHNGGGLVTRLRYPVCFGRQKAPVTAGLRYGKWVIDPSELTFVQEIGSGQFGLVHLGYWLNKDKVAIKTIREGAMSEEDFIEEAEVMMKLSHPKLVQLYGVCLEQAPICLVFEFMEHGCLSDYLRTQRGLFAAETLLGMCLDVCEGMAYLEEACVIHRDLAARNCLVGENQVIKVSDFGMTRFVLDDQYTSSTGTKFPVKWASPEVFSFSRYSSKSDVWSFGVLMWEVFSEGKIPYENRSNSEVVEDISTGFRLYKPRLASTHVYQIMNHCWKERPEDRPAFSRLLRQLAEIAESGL
Method: (§1) Inhibitory activities against BTK and ITK were measured for the compound represented by Chemical Formula 1 prepared in the above Examples as follows.
In addition, the inhibitory activity against ITK was evaluated using ‘ADP-GIo™+ITK Kinase enzyme system’ kit (Promega Corporation). In a white 96-well plate, 10 ? of ITK enzyme prepared so as to have a final concentration of 4 ng/ ? was mixed with 5 ? of compounds having a final concentration of 1 uM in the case of evaluating a single concentration of compound and a concentration of 1000, 200, 40, 8, 1.6 and 0.32 nM in the case of IC50 evaluation, and then reacted at room temperature for 15 minutes. To the plate on which reactions were completed, 5 ul of substrate and 5 ? of ATP prepared so as to have a final concentration of 25 uM were added and then allowed to react at 30° C. for 1 hour. All wells of the plate on which reactions were completed were treated with 25 ? of ADP-Glo™ reagent and then allowed to react at 30° C. for 40 minutes. […] For the plate on which all reactions were completed, luminescence was measured and the results were calculated. Evaluation was carried out in duplicate, and negative control and positive control were calculated depending on whether or not the enzyme was added without treatment of the compound. The IC50 was calculated based on the calculated values.

[2] = molecular target: T2, BTK (Homo sapiens, UniProt Q06187); assay: ADP-Glo BTK Kinase enzyme system inhibitory activity; assay type: biochemical; conditions: ADP-Glo kit (Promega), ATP 10 uM, duplicate; read-out: inhibitory activity against BTK (BTK IC50)
T2 construct: purchased Promega Corporation
T2 sequence (Q06187 whole entry): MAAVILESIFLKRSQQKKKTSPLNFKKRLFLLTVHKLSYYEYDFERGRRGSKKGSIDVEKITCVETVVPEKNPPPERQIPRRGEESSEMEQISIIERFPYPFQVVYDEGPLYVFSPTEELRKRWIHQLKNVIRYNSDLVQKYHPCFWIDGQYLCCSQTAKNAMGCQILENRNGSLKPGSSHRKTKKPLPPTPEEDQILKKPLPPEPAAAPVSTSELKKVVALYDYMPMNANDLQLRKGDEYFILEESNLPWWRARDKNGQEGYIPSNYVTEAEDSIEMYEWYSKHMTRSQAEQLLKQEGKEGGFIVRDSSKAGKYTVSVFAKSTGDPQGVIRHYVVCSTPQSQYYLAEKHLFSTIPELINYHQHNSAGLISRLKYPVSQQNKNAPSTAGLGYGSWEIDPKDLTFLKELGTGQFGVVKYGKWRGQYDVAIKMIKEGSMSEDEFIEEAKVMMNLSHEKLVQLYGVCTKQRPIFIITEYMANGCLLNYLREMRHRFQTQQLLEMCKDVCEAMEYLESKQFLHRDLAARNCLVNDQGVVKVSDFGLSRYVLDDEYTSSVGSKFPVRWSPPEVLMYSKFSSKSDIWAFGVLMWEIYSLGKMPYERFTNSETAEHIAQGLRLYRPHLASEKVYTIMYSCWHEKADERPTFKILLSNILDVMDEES
Method: as §1
The inhibitory activities against BTK were evaluated using ‘ADP-GIo™+BTK Kinase enzyme system’ kit (Promega Corporation). In a white 96-well plate, 10 ? of BTK enzyme prepared so as to have a final concentration of 10 ng/ ? was mixed with 5 ? of compounds having a final concentration of 1 uM in the case of evaluating a single concentration of compound and a concentration of 1000, 200, 40, 8, 1.6 and 0.32 nM in the case of IC50 evaluation, and then reacted at room temperature for 15 minutes. 5 ? of substrate and 5 ? of ATP prepared so as to have a final concentration of 10 uM were added to the plate on which reactions were completed, and then allowed to react at 30° C. for 1 hour. All wells of the plate on which reactions were completed were treated with 25 ? of ADP-Glo™ reagent and allowed to react at 30° C. for 40 minutes. […] For the plate on which all reactions were completed, luminescence was measured and the results were calculated. Evaluation was carried out in duplicate, and negative control and positive control were calculated depending on whether or not the enzyme was added without treatment of the compound. The IC50 was calculated based on the calculated values.

With `C=CC(=O)N1CCC[C@H](Nc2cc(CN3CCOCC3)cc(Nc3ncc(C)s3)n2)C1` [Chemical Formula 1, (S)-1-(3-((6-((5-methylthiazol-2-yl)amino)-4-(morpholinomethyl)pyridin-2-yl)amino)piperidin-1-yl)prop-2-en-1-one] the pIC50 [1] was 8.77 to 9.00 and the pIC50 [2] was 8.85 to 9.40.

Source: patent US20230094404A1, “METHOD FOR PREPARATION OF HETEROCYCLICAMINE DERIVATIVES” (Daewoong Pharmaceutical Co., Ltd., priority 2020, published 2023)
